IC50 and bioavailability data for 14 compounds are collected here from patent publication US12365658B2, “Benzothia(di)azepine compounds and their use as bile acid modulators” (Albireo AB, priority 2021, dated 2025).

A word on the IC50: it is the concentration at which inhibition is half-maximal. What is called bioavailability is the share of a dose that reaches the circulation, judged against a reference dose that is usually intravenous. The low end stands for poor availability, the high end for good availability.

The structures appear in SMILES notation.

One series addresses T1, Human LBAT (Homo sapiens, UniProt Q14973).
T1 construct: expressed in transfected cells; kept under Geneticin selection
T1 sequence (Q14973 1-349): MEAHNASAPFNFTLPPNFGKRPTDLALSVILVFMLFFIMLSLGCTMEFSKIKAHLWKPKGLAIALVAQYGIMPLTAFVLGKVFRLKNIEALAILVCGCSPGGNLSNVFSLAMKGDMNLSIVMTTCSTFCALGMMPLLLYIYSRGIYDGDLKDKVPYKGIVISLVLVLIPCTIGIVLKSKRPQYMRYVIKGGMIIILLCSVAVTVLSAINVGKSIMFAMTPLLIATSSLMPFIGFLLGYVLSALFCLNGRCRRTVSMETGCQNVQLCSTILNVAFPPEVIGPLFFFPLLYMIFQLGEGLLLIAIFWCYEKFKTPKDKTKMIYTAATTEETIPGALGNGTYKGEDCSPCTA
Put plainly: LBAT (h/m) assay, human LBAT-overexpressing cells, 3H-taurocholic acid uptake. Type of series: cell-based. Particulars: 0.3 μM 3H-taurocholic acid and 7.5 μM cold taurocholic acid, 20 minutes, read-out: hLBAT IC50. As to the method: LBAT (h/m) Assay Protocol
20,000 cells (Human or Mouse LBAT-overexpressing cells) were seeded in 96-wells plate (Corning CLS3809) in 100 μL MEM-alpha medium (Gibco 12571-063) supplemented with 10% FBS (Gibco 10438026) containing Geneticin (Gibco 10131-027) (1 mg/mL) and incubated at 37° C. in 5% CO2 for 24 hours. After incubation, media was decanted from the wells and cells were washed two times with 300 μL of basal MEM-alpha medium (FBS-free). After decanting basal MEM-alpha medium each time, plates were tapped against paper towel to ensure maximum removal of residual media.
For human LBAT, incubation mix was prepared by adding test inhibitor dilutions (3-fold serial dilution in DMSO (Sigma D2650), 10 points) in MEM-alpha (without FBS) containing 0.3 μM 3H-taurocholic acid (ARC ART-1368) and 7.5 μM cold taurocholic acid (Sigma T4009) (maintaining 0.2% final DMSO concentration). For mouse LBAT, incubation mix was prepared by adding test inhibitor dilutions (3-fold serial dilution in DMSO, 10 points) in MEM-alpha (without FBS) containing 0.3 μM 3H-taurocholic acid and 25 μM cold taurocholic acid maintaining 0.2% final DMSO concentration).
50 μL of incubation mix containing test inhibitors was then added to the wells (in duplicate) and the plates were incubated for 20 minutes in a CO2 incubator at 37° C. After incubation, the reaction was stopped by keeping the plates on ice water mix for 2-3 minutes and then the incubation mix was aspirated completely from the wells. The wells were washed two times with 250 μL of chilled unlabelled 1 mM taurocholic acid dissolved in HEPES (Gibco 15630080)-buffered (10 mM) HBSS (Gibco 14175079) (pH 7.4). The plates were tapped against a paper towel after every wash to ensure maximum removal of blocking buffer.
100 μL of MicroScint-20 (PerkinElmer 6013621) was added to the wells and kept overnight at room temperature before reading the plates in TopCount NXT™ Microplate Scintillation and Luminescence Counter from PerkinElmer under 3H Test protocol (set at 120 seconds reading time per well, with normal plate orientation).
Preparation of Test Compound Dilutions
All test compounds were provided in powder form at room temperature. 10 mM DMSO stocks of the test compounds were prepared, aliquoted and stored at −20° C. From the 10 mM DMSO stock of the compounds, a 3-fold serial dilution in DMSO was prepared to get a total of 10 dilutions of the test compounds. 0.5 μL of this dilution in DMSO was added to 250 μL of FBS-free basal media containing 3H-taurocholic acid and cold taurocholic acid to prepare the incubation mixture.

The nature of a further series: Bioavailability studies. Format: in vivo, Male mice (C57BL/6 or CD1) or Wistar rats. The settings on record: male, plasma; single intravenous dose 1 mg/kg and single oral dose 10 mg/kg; species per compound not given. As to the method: Male mice (C57BL/6 or CD1) or Wistar rats of 8-9 weeks old were used. For each test compound, two groups of 3 animals each were used. One group was administered a single intravenous dose of 1 mg/kg (vehicle 100% DMSO) through the tail vein and the other group was administered a single oral dose of 10 mg/kg through gavage needle. The group that was administered an oral dose was fasted overnight. Blood samples were collected after 0.083, 0.25, 0.5, 1, 2, 4, 6, 8 and 24 hours following intravenous administration, and after 0.25, 0.5, 1, 2, 4, 6, 8 and 24 hours following oral administration. Blood samples were taken from saphenous vein. 0.2% EDTA was used as the anticoagulant. The samples were analyzed by a discovery grade bioanalytical method developed for the estimation of test compound in plasma, using an LC-MS/MS system.

Consider `CCCCC1CN(c2ccccc2)c2cc(SC)c(OCC(C)(C)C(=O)O)cc2S(=O)(=O)N1C` (single isomer, unassigned) [2, enantiomer 2], for which the IC50 at Human LBAT was found to be 2.3 nM. The compound further showed a bioavailability in the series “Bioavailability studies” of 100%.
With `CCCCC1CN(c2ccccc2)c2cc(SC)c(OCC3(C(=O)O)CC3)cc2S(=O)(=O)N1C` (single isomer, unassigned) [4, enantiomer 2], at Human LBAT, the IC50 was found to be 7.4 nM. The bioavailability in the series “Bioavailability studies” is 17%.
`CCCCC1CN(c2ccccc2)c2cc(SCC)c(OCC(C)(C)C(=O)O)cc2S(=O)(=O)N1C` (single isomer, unassigned) [6, enantiomer 2]: the IC50 on Human LBAT stood at 6.2 nM.
On to `CCCCC1CN(c2ccccc2)c2cc(SCC)c(OCC3(C(=O)O)CC3)cc2S(=O)(=O)N1C` (single isomer, unassigned) [8, enantiomer 1], for which the half-inhibitory concentration (IC50) at Human LBAT came out at 5 nM. Further, the bioavailability in “Bioavailability studies” came to 40%.
Regarding `CCCCC1CN(c2ccccc2)c2cc(SC)c(OCC(C)(OC)C(=O)O)cc2S(=O)(=O)N1C` (single isomer, unassigned) [24, diastereomer 1], the IC50 on Human LBAT amounted to 8.4 nM.
Turning to `CCCCC1CN(c2ccccc2)c2cc(SC)c(OCC(C)(OC)C(=O)O)cc2S(=O)(=O)N1C` (single isomer, unassigned) [24, diastereomer 2], the IC50 at Human LBAT was determined as 16 nM.
For the compound `CCCCC1CN(c2ccccc2)c2cc(SC)c(OCC(OC)C(=O)O)cc2S(=O)(=O)N1C` (single isomer, unassigned) [32, diastereomer 1], the IC50 at Human LBAT was found to be 22 nM.
As for `CCCCC1CN(c2ccccc2)c2cc(SC)c(OCC(C)(OC)C(=O)O)cc2S(=O)(=O)N1C` (single isomer, unassigned) [Example 23, 3-((3-Butyl-2-methyl-7-(methylthio)-1,1-dioxido-5-phenyl-2,3,4,5-tetrahydro-1,2,5-benzothiadiazepin-8-yl)oxy)-2-methoxy-2-methylpropanoic acid], the IC50 at Human LBAT stood at 14 nM.
For the compound `CCCCC1CN(c2ccccc2)c2cc(SC)c(OCC3(C(=O)O)CC3)cc2S(=O)(=O)N1C` (centres unmarked) [Example 3, 1-(((3-Butyl-2-methyl-7-(methylthio)-1,1-dioxido-5-phenyl-2,3,4,5-tetrahydro-1,2,5-benzothiadiazepin-8-yl)oxy)methyl)cyclopropane-1-carboxylic acid], the IC50 on Human LBAT was determined as 13 nM.
Take `CCCCC1CN(c2ccccc2)c2cc(SCC)c(OCC(C)(C)C(=O)O)cc2S(=O)(=O)N1C` (centres unmarked) [Example 5, 3-((3-Butyl-7-(ethylthio)-2-methyl-1,1-dioxido-5-phenyl-2,3,4,5-tetrahydro-1,2,5-benzothiadiazepin-8-yl)oxy)-2,2-dimethylpropanoic acid]: the IC50 on Human LBAT turned out to be 8.9 nM.
Same read-out and setting: under `CCCCC1CN(c2ccccc2)c2cc(SCC)c(OCC3(C(=O)O)CC3)cc2S(=O)(=O)N1C` (centres unmarked) [Example 7, 1-(((3-Butyl-7-(ethylthio)-2-methyl-1,1-dioxido-5-phenyl-2,3,4,5-tetrahydro-1,2,5-benzothiadiazepin-8-yl)oxy)methyl)cyclopropane-1-carboxylic acid] stands 25 nM.
Take `CCCCC1CN(c2ccc(F)cc2)c2cc(SC)c(OCC(C)(C)C(=O)O)cc2S(=O)(=O)N1C` (centres unmarked) [Example 13, 3-((3-butyl-5-(4-fluorophenyl)-2-methyl-7-(methylthio)-1,1-dioxido-2,3,4,5-tetrahydro-1,2,5-benzothiadiazepin-8-yl)oxy)-2,2-dimethylpropanoic acid]: the IC50 on Human LBAT came out at 3.3 nM.
As to `CCCCC1CN(c2ccccc2)c2cc(SC)c(OCC(C)(OC)C(=O)O)cc2S(=O)(=O)N1C` (centres unmarked) [Example 22, 3-((3-Butyl-2-methyl-7-(methylthio)-1,1-dioxido-5-phenyl-2,3,4,5-tetrahydro-1,2,5-benzothiadiazepin-8-yl)oxy)-2-methoxy-2-methylpropanoic acid], the IC50 at Human LBAT was found to be 28 nM.
As to `CCCCC1CN(c2ccc(F)cc2)c2cc(SCC)c(OCC(O)C(=O)O)cc2S(=O)(=O)N1C` (centres unmarked) [Example 33, 3-((3-butyl-7-(ethylthio)-5-(4-fluorophenyl)-2-methyl-1,1-dioxido-2,3,4,5-tetrahydro-1,2,5-benzothiadiazepin-8-yl)oxy)-2-hydroxypropanoic acid], the IC50 at Human LBAT came to 6 nM.
